Consider 14 compounds from PubChem BioAssay (NCI).

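Grown in 96-well plates, cells were treated for 48 hours with each compound at five concentrations. Insufficient inhibition: endpoint recorded as highest concentration tested. GI50 = concentration required for 50% inhibition of growth. TGI denotes the concentration required for complete inhibition of growth.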

What all share (test): NCI anticancer screen, dose series, 48 h
In experiment [1] the test system is NCI-H460 lung.
Experiment [2] concerns SF-539 CNS.
For experiment [3], the system named is CCRF-CEM leukemia.
Experiment [4] has as its system HT29 colon.
For experiment [5], the system named is OVCAR-8 ovarian.
For experiment [6], the system named is SNB-19 CNS.
Experiment [7] has as its system SK-OV-3 ovarian.
In experiment [8] the test system is OVCAR-4 ovarian.
Experiment [9] relates to MDA-MB-231 breast.
Experiment [10] relates to PC-3 prostate.
The subject of experiment [11] is MCF7 breast.
For experiment [12], the system named is HCC-2998 colon.

With `CN(C(=O)c1ccco1)C(=S)N1CCN(c2ccccn2)CC1`, the TGI in experiment [1], in [2], in experiment [3], in [4], in experiment [5] and in [6] was greater than 100 µM throughout. The TGI in experiment [7] and in experiment [8] was greater than 100 µM throughout.

Consider `COC(=O)C1=C(CCC[C@H](C)O[Si](C)(C)C(C)(C)C)NC(=O)N2[C@@H](CCO)CC[C@H]12`, for which the TGI in experiment [1] was found to be 47.4 µM; in experiment [2], 31.6 µM; in [4], 29.8 µM; in experiment [5], 29.5 µM; in experiment [9], 31.9 µM; in [6], 29 µM. Further, the TGI in experiment [7] turned out to be 30.4 µM; in experiment [8], 38.2 µM.

Regarding `O=c1c([OH2+])c(-c2ccc(O)cc2[O-])oc2cc(O)cc([O-])c12.O=c1c([OH2+])c(-c2ccc(O)cc2[O-])oc2cc(O)cc([O-])c12.[Ti+4]`, the TGI in experiment [1], in experiment [2], in experiment [3], in [4], in experiment [5] and in experiment [6] was greater than 100 µM throughout. Moreover, the TGI in [7] and in experiment [8] was greater than 100 µM in each case. The GI50 in experiment [7] was greater than 100 µM.

For `COc1cc(C2c3c(ccc4ccccc34)C(=O)C3CCC(=O)N32)cc(OC)c1O` (configuration not stated), the TGI in [1], in experiment [2], in [3], in experiment [4], in experiment [5] and in [10] was greater than 25 µM in each case. The TGI in experiment [6], in experiment [11], in [7] and in experiment [8] was greater than 25 µM in each case.

With `COC(=O)C1(C)NCCc2c1[nH]c1ccccc21` (configuration not stated), the TGI in [2], in experiment [3], in experiment [4], in experiment [5], in experiment [6] and in experiment [7] was greater than 100 µM throughout. Further, the TGI in [12] and in experiment [8] was greater than 100 µM in each case.

As to `NC(Cc1ccc(B(O)O)cc1)C(=O)NC(CO)CO` (configuration not stated), the TGI in [1], in [2], in [3], in [4], in [5] and in experiment [9] was greater than 100 µM in each case. Moreover, the TGI in experiment [10], in experiment [6], in [7], in experiment [12] and in [8] was greater than 100 µM in each case.

Regarding `O=C1NC(=S)NC(=O)C1=C/C=C/c1ccc([N+](=O)[O-])cc1`, the TGI was found to be 54.3 µM in experiment [1]; 28.8 µM in experiment [2]; 58.7 µM in [4]; 47.6 µM in [5]; 35.5 µM in experiment [9]; 32.2 µM in experiment [10]. Also, the TGI stood at 34 µM in experiment [6]; 34.9 µM in experiment [11]; 36 µM in experiment [7]; 35.7 µM in experiment [12]; 36.1 µM in experiment [8].

`COc1cccc(NC(=O)C(=O)C2C=CCS2(=O)=O)c1` (configuration not stated): the TGI in [1], in [2], in [3], in experiment [4], in experiment [5] and in experiment [6] was greater than 100 µM each time. For the same compound, the TGI in experiment [7], in experiment [12] and in experiment [8] was greater than 100 µM in each case.

Turning to `[N-]=[N+]=CC(=O)CCC(=O)N(c1ccccc1)c1ccccc1`, the TGI in experiment [1], in experiment [2], in [3], in experiment [4], in experiment [5] and in [9] was greater than 10 µM each time. Besides, the TGI in [10], in experiment [6], in experiment [11] and in [7] was greater than 10 µM each time.

In the case of `CCCCOC(=O)c1cc(C(=CCC[C@H]2CC[C@@]3(C)[C@@H](CC[C@@H]4[C@@H]3CC[C@]3(C)[C@@H](C(C)CCCC(C)C)CC[C@@H]43)C2)c2cc(Cl)c(O)c(C(=O)OCCCC)c2)cc(Cl)c1O` (some centres not stated), the TGI in [1], in experiment [3], in [4], in [5], in experiment [9] and in [10] was greater than 50 µM throughout. In addition, the TGI in [6], in [12] and in experiment [8] was greater than 50 µM throughout.

For the compound `CCOC(=O)C(CCc1ncnc2c1ncn2Cc1ccccc1)(CCc1ncnc2c1ncn2Cc1ccccc1)C(=O)OCC`, the TGI was greater than 100 µM in experiment [1]; 94.6 µM in [2]; greater than 100 µM in experiment [4]; greater than 100 µM in experiment [5]; greater than 100 µM in [9]; greater than 100 µM in experiment [10]. Besides, the TGI in experiment [6] was greater than 100 µM; in experiment [11] it was greater than 100 µM; in experiment [12], 54.8 µM; in experiment [8], greater than 100 µM.

For `O=c1ccnc2ccc3n[nH][nH]c3c12`, the TGI in experiment [1], in [2], in experiment [3], in experiment [4], in experiment [5] and in experiment [6] was greater than 100 µM each time. The TGI in experiment [7], in experiment [12] and in experiment [8] was greater than 100 µM throughout.

Turning to `O=C(C/C=C/c1ccccc1)c1ccccc1`, the TGI in experiment [1] came out at 60.6 µM; in [2] it was 56.6 µM; in experiment [3], 64.8 µM; in [4], 65.5 µM; in [5], 49.1 µM; in experiment [11], 32.7 µM. Also, the TGI in [7] is greater than 100 µM; in [12], 33.4 µM.

For the compound `CSCCC(C(=O)O)N(CC1(O)OCC(O)C(O)C1O)N=O` (configuration not stated), the TGI in [1], in experiment [2], in experiment [3], in experiment [4], in experiment [5] and in experiment [7] was greater than 100 µM in each case. Further, in [12], the TGI is greater than 100 µM.
